Assay results reported in US9355826B2, “Method for imaging mass analysis using physical vapor deposition of platinum nanoparticles” (priority 2012, dated 2016).

Experiment: IMS visualization of permeation and distribution of acephate in ivy after scattering a grain type agricultural chemical on the soil
Format: in vivo
Conditions: for mass spectrum of collected leaves (peaks originating from acephate): FIG. 32; for distribution of acephate on leaf (peak at m/z=206): FIG. 33; for distribution of acephate in stem (peak at m/z=206): ivy stems collected 4 days later, FIG. 34
Experimental: A grain type pesticide agricultural chemical for horticulture was scattered on soil in which ivy was planted. 4, 8, 11, and 14 days later, leaves at about 30 mm from the soil were collected, and platinum nanoparticles were vapor deposited using a magnetron sputtering device to a thickness of 10 nm, thereby preparing samples. The grain type agricultural chemical that was used contained acephate as an active component.
Each sample was measured by IMS. Also, for the stems that were collected 4 days later, the lower stem and the upper stem, which were respectively close to and far from the root, were measured by IMS under the same conditions.
The measurement conditions of IMS are shown below.
Irradiation laser: Nd:YAG laser (355 nm)
Accelerating voltage: 19 kV
Reflectron voltage: 21 kV
Laser radius: about 100 μm (ultra mode)
Measurement interval: 150 μm

SMILES: COP(=O)(NC(C)=O)SC (centres unmarked) [acephate]
- mass spectrum of collected leaves (peaks originating from acephate) (ivy leaves at about 30 mm from the soil, collected 4 days after scattering on soil): only the peaks of the wax layer were observed
- distribution of acephate on leaf (peak at m/z=206) (ivy leaves collected 4 days later): not observed
- distribution of acephate on leaf (peak at m/z=206) (ivy leaves collected 8 days later): observed at the base of the leaves
- mass spectrum of collected leaves (peaks originating from acephate) (ivy leaves collected 11 days after scattering on soil): peaks originating from acephate were observed
- distribution of acephate on leaf (peak at m/z=206) (ivy leaves collected 11 days later): observed spreading to the tips of the leaves
- distribution of acephate on leaf (peak at m/z=206) (ivy leaves collected 14 days later): observed spreading to the tips of the leaves
- distribution of acephate in stem (peak at m/z=206) (lower stem close to the soil): strong peak of acephate was observed in the lower side of the lower stem
- distribution of acephate in stem (peak at m/z=206) (moving upward along the stem): gradual weakening of the acephate peak
